Where “and” joins values, the source holds several entries; their conditions need not be identical. Equal values may be shown once.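 Each compound was tested at five concentrations against cells in 96-well plates for 48 hours. GI50 marks 50% less growth. At the TGI there is no net growth.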
Tests used:
Assay in all cases: DTP human tumour cell line panel, 48 h
MDA-MB-435 = system: MDA-MB-435
NCI-H226 lung = system: NCI-H226 lung
T-47D breast = system: T-47D breast
NCI-H522 lung = system: NCI-H522 lung
786-0 renal = system: 786-0 renal
PC-3 prostate = system: PC-3 prostate
NCI/ADR-RES ovarian = system: NCI/ADR-RES ovarian
SF-295 CNS = system: SF-295 CNS
HS 578T breast = system: HS 578T breast
HCC-2998 colon = system: HCC-2998 colon
M14 melanoma = system: M14 melanoma

SMILES	TGI (MDA-MB-435) [µM]	TGI (NCI-H226 lung)	TGI (T-47D breast) [µM]	TGI (NCI-H522 lung)	TGI (786-0 renal) [µM]	TGI (PC-3 prostate) [µM]	TGI (NCI/ADR-RES ovarian) [µM]	TGI (SF-295 CNS) [µM]	TGI (HS 578T breast) [µM]	GI50 (NCI-H226 lung) [µM]	TGI (HCC-2998 colon)	GI50 (M14 melanoma)	TGI (M14 melanoma) [µM]	GI50 (MDA-MB-435) [µM]	GI50 (T-47D breast) [µM]	GI50 (HCC-2998 colon) [µM]	GI50 (NCI-H522 lung) [µM]	GI50 (NCI/ADR-RES ovarian) [µM]	GI50 (SF-295 CNS) [µM]	GI50 (HS 578T breast) [µM]
COc1ccc(/C=C/C(=O)c2cc(CN(C)C)c(O)c(CN(C)C)c2)cc1	> 100	> 100 µM	> 100	43.2 µM	> 100	85.8	> 100	91.1	> 100	–	–	–	–	–	–	–	–	–	–	–
Cc1c2cc[n+](C)cc2c(C)c2c1[nH]c1ccc(OCC(F)(F)F)cc12	–	1.69 µM and 3.75 µM	–	5.64 µM and 4.83 µM	> 100	–	–	2.22	–	0.581	34.5 µM and > 100 µM	11.6 µM and > 94.3 µM	> 100	–	–	–	–	–	–	–
COc1cccc(C2C(C#N)=C(N)Oc3cc(OCCCCCC[P+](c4ccccc4)(c4ccccc4)c4ccccc4)ccc32)c1 (stereo not drawn)	1.31	–	1.95	2.49 µM	–	–	78.3	3.19	2.78	–	1.68 µM	–	–	0.357	0.354	0.493	0.515	11.9	1.58	0.608
CCC1OC2(C)CC(C#N)(C#N)C1(C#N)C(=N)O2 (stereo not drawn)	> 100	–	> 100	–	> 100	> 100	–	> 100	> 100	–	–	–	> 100	–	–	–	–	–	–	–
CN(C)Cc1cc(/C=C/C(=O)c2ccc(Br)cc2)cc(CN(C)C)c1O	36.8	–	35.4	–	29.9	> 100	> 100	38.7	–	–	27.8 µM	–	> 100	–	–	–	–	–	–	–
COc1c(NC(C)=O)c2ccccc2c2ccccc12	> 100	> 100 µM	> 100	> 100 µM	> 100	> 100	> 100	> 100	> 100	–	–	–	> 100	–	–	–	–	–	–	–
O=c1cc(-c2ccccc2)oc2cc(OCCCCCCCCCCOc3ccc4c(=O)cc(-c5ccccc5)oc4c3)ccc12	–	–	–	> 100 µM	> 100	–	–	> 100	–	–	> 100 µM	–	> 100	–	–	–	–	–	–	–
COc1ccc(-c2nc(-c3cnccn3)n(C/C=C/c3ccccc3)n2)cc1	> 100	–	> 100	> 100 µM	46.5	> 100	> 100	73.4	–	–	> 100 µM	–	> 100	–	–	–	–	–	–	–
C=CC(C)(C)/C(=C\CO[Si](C(C)C)(C(C)C)C(C)C)C(=O)N(C)c1ccccc1I	73.9	–	25.3	19 µM	27.6	12.6	37.6	28.8	27.1	–	26 µM	–	33.6	–	–	–	–	–	–	–
Oc1c(NCn2nc(CCCCCCCCc3nn(CNc4ccc5ccccc5c4O)c(=S)o3)oc2=S)ccc2ccccc12	43.2	> 100 µM	–	> 100 µM	> 100	> 100	> 100	> 100	–	–	> 100 µM	–	> 100	–	–	–	–	–	–	–
Cc1cc(C)c(S(=O)(=O)N(CCCCCN)OCCCN)c(C)c1	34.9	29.9 µM	37.7	–	–	28.8	34.3	30.4	40	–	20 µM	–	37	–	–	–	–	–	–	–
C/C(N=NS(=O)(=O)c1c(C)cc(C)cc1C)=C1\C=CC=CN1O	–	–	–	> 100 µM	> 100	–	–	> 100	–	–	> 100 µM	–	> 100	–	–	–	–	–	–	–

From PubChem BioAssay (NCI)
